From patent publication US10487091B2, “Activators of autophagic flux and phospholipase D and clearance of protein aggregates including tau and treatment of proteinopathies” (THE TRUSTEES OF COLUMBIA UNIVERSITY IN THE CITY OF NEW YORK, priority 2015, dated 2019)
Like-named read-outs stand apart in the source and are kept apart here.

Experiments:
phospholipase D (PLD) = assay: PLD assay (conversion of phospholipids to phosphatidylethanols in presence of ethanol, LC/MS); type: cell-based, mice; conditions: PLD activation, fold; 24 hours incubation
Method: Cells were incubated with test compound for 24 hours. 25 minutes prior to harvest at 24 hours, 3% ethanol solution was added to the wells to catalyze cleavage of the phospholipid. Cells were then placed on ice, washed and harvested. The harvested cells were centrifuged and the supernatant was aspirated and the pellet kept. The pellet was resuspended and chloroform/methanol lipid extraction was performed. The sample was centrifuged and the organic layer was separated, dried under nitrogen and stored at −80° C. On the day of analysis, samples were resuspended and analysed by LC/MS. All phosphatidylethanol species (PEtOH32-40:0-6:16/18:0/1) were combined together and represented as total lipid content (all lipid species).
(§1) The assay was run in e18 primary cortical neurons from PLD1 or PLD2 KO mice cultured for 14 days. Alternatively, the assay can be run in the cells described above in the presence of excess PLD1 or PLD2 inhibitor to preclude that particular action from contributing to the effect of the drug.
(§2) 4) On the day of experiment, cells were washed in warmed HBSS twice before media containing test compound (n=3 per compound per dose), inhibitor (355 nM ML298 or 50 nM VU0150669), or vehicle are added to the wells (1.5 mL in 6 well, 600 μL in 12 well). Plates were incubated for 24 hours at 37° C. with 5% CO2.
5) 25 minutes prior to harvest, a 165 μL of a 3% ethanol solution was added to each well.
PLD activation converts phospholipids to phosphatidylethanols in the presence of ethanol. […] FIPI is a non-competitive inhibitor of PLD activity and was used as a negative control.

[1] = Photodiode array (PDA) detection of compound in mouse brain; type: in vivo; conditions: FIG. 1
From the text: FIG. 1 is a graph showing a photodiode array (PDA) spectrum of WHYKD8 in mouse brain.
A photodiode array (PDA) was used to detect WHYKD8 in mouse brain (FIG. 1).

Tau/aggregate = Tau/aggregate inhibition in HEK 293 cells expressing mKate2-tagged Tau; type: cell-based, Human; conditions: Homo sapiens, HEK293
Method: (§3) 1) HEK cells with tet-regulated expression of mKate2 tagged Tau were grown in DMEM medium (Dulbecco's Modified Eagle's Medium) containing 0.5 μg/mL doxycycline (Dox)(MP-Bio#198955), after 3-5 days Dox was removed by washing the cells twice with sterile phosphate buffered saline (PBS; Invitrogen#14190-144), cells were left in DMEM without Dox for 72 hours (to further clear remaining Dox in cells).
(§4) The test compounds (along with CytoID™ dye and Hoechst stain) were added to the cells and incubated for 3 hours. Reference compounds were also used in each plate, Rapamycin was used for autophagy induction and chloroquine was used for lysosomal inhibition. After 3 hours test compound was aspirated off and kept. Cells were then washed and read using a fluorescence plate reader. Hoescht, Cyto-ID™ and mKate2 were measured using 3 distinct wavelengths on the plate reader. The Hoescht measurement allowed normalisation of results across wells. After reading, test compound was re-added and the cells are left for a further 21 hours. At the 24 hour time point cells were once again washed and plates read using the fluorescence plate reader.
(§5) Proteostat™ assay was used to detect aggresomes via measurement of p62. Aggresomes are inclusion bodies that form when the ubiquitin-proteasome machinery is overwhelmed with aggregation-prone proteins. Typically, an aggresome forms in response to some cellular stress, such as hyperthermia, viral infection, or exposure to reactive oxygen species. Aggresomes may provide a cytoprotective function by sequestering the toxic, aggregated proteins and may also facilitate their ultimate elimination from cells by autophagy. Following the final plate read described in the Cyto-ID™ assay described above, Proteostat™ detection reagent was added to every well and the plate was incubated for 15 minutes. Following this incubation, the plate was read by fluorescence plate reader at the specified wavelength. After this plate read, the cells were fixed by incubating with warm paraformaldehyde for 8 minutes. The fixed cells were then read by plate reader as before.
Western blot assays were performed to determine protein changes in Tau and p62. Cells were cultured as above and incubated with test compounds for 24 h. Following test compound incubation, the test compound was aspirated off and cells were washed before harvesting. Cells were spun at a low speed and supernatant was aspirated to leave the cell pellet. The cell pellet was then homogenized in buffer, centrifuged at high speed, and the supernatant aspirated and further separated into total fraction and aggregate fraction allowing quantification of soluble and insoluble proteins. Western blots were run on the samples, gels transferred to nitrocellulose and incubated with antibodies for Tau and p62. After incubation with secondary antibodies for detection, the bands of protein were quantified by chemiluminescence.

[2] = Cytotoxicity LC50 (XTT assay for cell viability); type: cell-based; conditions: human, transfected HEK 293 cells that express mKate2-tagged Tau;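 further: cells carry doxycycline-repressible Tau, induced by withdrawing doxycycline for 72 h before compound exposure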
Method: The cells were grown in the presence of the antibiotic doxycycline. When the antibiotic is removed the cells produce Tau (which can be quantified), thus allowing the test compounds' effects on Tau's production to be compared. Doxycycline was removed for 72 hours prior to exposure to the test compounds to promote sufficient Tau production. Cells were subsequently plated into plates for each of the assays described below.

Autophagy Markers = assay: Autophagy markers (Cyto-ID assay) in HEK 293 cells; type: cell-based, Human
Method: The dye used in the kit prevents its accumulation within lysosomes, but enables labelling of vacuoles associated with the autophagy pathway using the LC3 biomarker.
as §4
2) Test samples were prepared in warm FluoroBrite™ DMEM and with 10% FBS and 1% NEAA (FB-DMEM). Rapamycin 200 nM (Enzo #BML-A275-0025) was used for autophagy induction and […] chloroquine was used for lysosomal inhibition (bafilomycin or similar compounds were not used as they give a false negative result in the assay). Dimethyl Sulfoxide 1:1000 (DMSO; Fisher #BP231-100) was used as control. Autophagosome marker Cyto ID™ (1:500; Enzo #ENZ-51031-k200) and Hoechst (1:200) was added to these test sample preparations before treating the cells.
7) At 24 hours post reaction all medium was aspirated and the plate was washed 3 times with warm FB-DMEM, and read again for Hoescht (Ex=355 nm Em=446 nm), CytoID™ (Ex=463 nm; Em=534 nm) and mKate2 (Ex=575 nm; Em=630 nm) in 80 μl of FB-DMEM.

PLD1 = target: T1, PLD1 (Homo sapiens, UniProt Q13393); assay: PLD1 activity: Proteostat/mKate2 with PLD2 inhibitor ML298; type: cell-based; conditions: with ML298, PLD2 inhibitor (355 nM)
T1 construct: endogenous in cells; host or cells: HEK 293 (Jump-In) cells with tet-regulated mKate2-Tau
T1 sequence (Q13393 1-1074): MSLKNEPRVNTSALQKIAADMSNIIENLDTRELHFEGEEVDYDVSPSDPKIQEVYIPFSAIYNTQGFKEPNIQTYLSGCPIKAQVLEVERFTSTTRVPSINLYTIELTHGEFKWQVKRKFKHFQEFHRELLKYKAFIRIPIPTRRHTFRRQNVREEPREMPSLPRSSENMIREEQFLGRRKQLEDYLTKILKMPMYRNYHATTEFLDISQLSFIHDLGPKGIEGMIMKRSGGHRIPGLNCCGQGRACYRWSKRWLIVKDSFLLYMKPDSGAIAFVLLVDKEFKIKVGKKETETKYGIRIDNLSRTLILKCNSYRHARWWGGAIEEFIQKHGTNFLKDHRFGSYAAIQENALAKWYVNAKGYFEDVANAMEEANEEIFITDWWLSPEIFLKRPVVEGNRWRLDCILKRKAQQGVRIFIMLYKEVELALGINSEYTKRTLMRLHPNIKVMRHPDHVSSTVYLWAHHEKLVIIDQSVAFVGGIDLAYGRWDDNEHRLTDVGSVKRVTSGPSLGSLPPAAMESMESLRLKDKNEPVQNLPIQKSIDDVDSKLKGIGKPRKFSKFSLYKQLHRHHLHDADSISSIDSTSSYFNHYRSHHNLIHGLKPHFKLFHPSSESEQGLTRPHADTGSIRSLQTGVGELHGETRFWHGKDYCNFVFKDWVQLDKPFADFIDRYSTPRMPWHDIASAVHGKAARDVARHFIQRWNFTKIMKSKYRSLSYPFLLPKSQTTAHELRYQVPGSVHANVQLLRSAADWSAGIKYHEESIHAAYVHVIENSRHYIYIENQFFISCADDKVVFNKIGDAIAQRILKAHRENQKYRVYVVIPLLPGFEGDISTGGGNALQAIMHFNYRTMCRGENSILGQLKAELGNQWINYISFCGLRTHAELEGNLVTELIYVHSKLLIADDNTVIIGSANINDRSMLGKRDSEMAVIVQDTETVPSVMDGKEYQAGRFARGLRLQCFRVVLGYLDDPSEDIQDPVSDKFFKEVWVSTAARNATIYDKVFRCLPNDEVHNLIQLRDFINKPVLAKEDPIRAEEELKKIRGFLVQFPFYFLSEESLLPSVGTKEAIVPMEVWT
Method: as §1, §2

aggregates (Proteostat) = assay: Proteostat protein aggregation assay EC50; type: cell-based; conditions: Homo sapiens; 50% reduction of Proteostat levels (fluorescent marker of aggregates)
From the text: as §5
8) Detection solution was prepared by adding 10 μl Proteostat™ detection reagent (ENZ-51023-KP002) and 200 μL of 10× assay buffer into 1790 μL water and mixing well.
9) 20 μL was added per well (each well had 80 μl of Fluorobrite™ media with no FBS) and incubated in the dark for 15 min at room temperature.
10) Fluorescence for Proteostat™ (Ex=550 nm; Em=600 nm) was then read.

mKate2 tagged Tau = assay: Tau-mKate2 fluorescence EC50; type: cell-based; conditions: Homo sapiens; 50% reduction of mKate2 fluorescence (tau tag)
Method: as §3
as §4, with “After 3 hours test compound was aspirated off and kept.” left out, “The Hoescht measurement allowed normalisation of results across wells.” left out
5) Treatment plate was then washed quickly 3 times with warm FB-DMEM (100 μL/well). […] At this point, the plate was ready for reading. See details in Reading Plate section. Hoescht was read at Excitation wavelength (Ex)=355 nm & Emission wavelength (Em)=446 nm. mKate2 was read at Ex=575 nm & Em=630 nm. Cyto-ID™ was read at Ex=463 nm & Em=534 nm. […]

PLD2 = target: T2, PLD2 (Homo sapiens, UniProt O14939); assay: PLD2 activity: Proteostat/mKate2 with PLD1 inhibitor VU0150669; type: cell-based; conditions: for EC50: with PLD1 inhibitor VU0150669, 50 nM
T2 construct: endogenous in cells; host or cells: HEK 293 (Jump-In) cells with tet-regulated mKate2-Tau
Method: as §1, §2

T2 sequence (O14939 whole entry): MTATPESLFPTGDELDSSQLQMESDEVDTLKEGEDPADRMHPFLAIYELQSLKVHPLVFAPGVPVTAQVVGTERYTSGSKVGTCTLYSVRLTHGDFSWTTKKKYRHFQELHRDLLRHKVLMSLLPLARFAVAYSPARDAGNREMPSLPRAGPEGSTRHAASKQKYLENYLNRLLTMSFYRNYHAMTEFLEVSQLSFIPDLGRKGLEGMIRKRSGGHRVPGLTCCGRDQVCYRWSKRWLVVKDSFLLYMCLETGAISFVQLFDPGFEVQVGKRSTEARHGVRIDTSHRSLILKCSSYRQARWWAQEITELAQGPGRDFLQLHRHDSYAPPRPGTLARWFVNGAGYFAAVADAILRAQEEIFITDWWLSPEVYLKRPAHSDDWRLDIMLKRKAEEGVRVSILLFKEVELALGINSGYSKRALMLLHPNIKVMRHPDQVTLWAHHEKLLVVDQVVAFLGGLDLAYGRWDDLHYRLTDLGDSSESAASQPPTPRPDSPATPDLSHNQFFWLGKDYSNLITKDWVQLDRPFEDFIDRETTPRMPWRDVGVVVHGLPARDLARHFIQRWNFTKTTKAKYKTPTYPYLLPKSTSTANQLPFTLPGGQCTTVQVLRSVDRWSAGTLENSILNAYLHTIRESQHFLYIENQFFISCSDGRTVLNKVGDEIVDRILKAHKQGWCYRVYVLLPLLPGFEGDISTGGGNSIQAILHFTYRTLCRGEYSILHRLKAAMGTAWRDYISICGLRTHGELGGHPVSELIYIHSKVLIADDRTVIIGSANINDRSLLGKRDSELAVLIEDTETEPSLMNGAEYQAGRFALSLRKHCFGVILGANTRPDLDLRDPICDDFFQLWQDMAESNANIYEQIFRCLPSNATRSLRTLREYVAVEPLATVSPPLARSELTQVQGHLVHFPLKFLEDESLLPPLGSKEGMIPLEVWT

| SMILES | PLD (phospholipase D (PLD)) [X] | detection in mouse brain [1] | inhibition at 1 µM (Tau/aggregate) [%] | CC50 ([2]; read-out: Cyto-toxixity LC50) [nM] | % Increase Autophagy Markers (Autophagy Markers) [%] | EC50 (PLD1; read-out: Proteostat (nM) using pharmacological inhibitor PLD1) [nM] | EC50 (PLD1; read-out: mKate2 (nM) using pharmacological inhibitor PLD1) [nM] | EC50 (aggregates (Proteostat)) [nM] | CC50 ([2]; XTT assay, 200 = upper concentration limit tested, read-out: LC50 (the source's name)) [nM] | EC50 (mKate2 tagged Tau) [nM] | Proteostat PLD2/PLD1 ratio (PLD2; Proteostat readout) | mKate2 PLD2/PLD1 ratio (PLD2; mKate2 readout) | EC50 (PLD2; read-out: Proteostat (nM) using pharmacological inhibitor PLD2) [nM] | EC50 (PLD2; read-out: mKate2 (nM) using pharmacological inhibitor PLD2) [nM] |
| --- | --- | --- | --- | --- | --- | --- | --- | --- | --- | --- | --- | --- | --- | --- |
| Oc1ccc(CCNc2ncnc3ccc(Cl)cc23)cc1 [WHYKD8] | 2.8 | readily detected | 30 | > 100000 | 25 | – | – | – | – | – | – | – | – | – |
| c1cnc2c(SC3CCCC3)ncnc2c1 [WHYKD36] | – | – | – | – | – | 394 | 1330 | 383 | 67000 | 1040 | 1.5 | 1.7 | 604 | 2280 |
